| SMILES | melting point |
| --- | --- |
| Cc1cc(C#N)cc(Oc2c(Cl)ccc(CC(=O)Nc3ccc(S(N)(=O)=O)cc3C)c2F)n1 [Compound I-124, 2-[4-Chloro-3-(4-cyano-6-methyl-pyridin-2-yloxy)-2-fluoro-phenyl]-N-(2-methyl-4-sulfamoyl-phenyl)-acetamide] | 230.1 to 230.7 °C |
| Cc1cc(S(=O)(=O)CCC(=O)O)ccc1NC(=O)Cc1ccc(C)c(Oc2cc(Cl)cc(C#N)c2)c1 [Compound I-125, 3-(4-{2-[3-(3-Chloro-5-cyano-phenoxy)-4-methyl-phenyl]-acetylamino}-3-methyl-benzenesulfonyl)-propionic acid] | 74.3 to 76.5 °C |
| Cc1cc(S(=O)(=O)NC2CCOCC2)ccc1NC(=O)Cc1ccc(C)c(Oc2cc(Cl)cc(C#N)c2)c1 [Compound I-128, 2-[3-(3-Chloro-5-cyano-phenoxy)-4-methyl-phenyl]-N-[2-methyl-4-(tetrahydro-pyran-4-ylsulfamoyl)-phenyl]-acetamide] | 171.7 to 172.6 °C |
| Cc1cc(S(=O)(=O)NCC(C)O)ccc1NC(=O)Cc1ccc(C)c(Oc2cc(Cl)cc(C#N)c2)c1 (centres unmarked) [Compound I-129, 2-[3-(3-Chloro-5-cyano-phenoxy)-4-methyl-phenyl]-N-[4-(2-hydroxy-propylsulfamoyl)-2-methyl-phenyl]-acetamide] | 172.2 to 173.4 °C |
| CSCCNS(=O)(=O)c1ccc(NC(=O)Cc2ccc(C)c(Oc3cc(Cl)cc(C#N)c3)c2)c(C)c1 [Compound I-130, 2-[3-(3-Chloro-5-cyano-phenoxy)-4-methyl-phenyl]-N-[2-methyl-4-(2-methylsulfanyl-ethylsulfamoyl)-phenyl]-acetamide] | 155.6 to 156.6 °C |
| CSCCCNS(=O)(=O)c1ccc(NC(=O)Cc2ccc(C)c(Oc3cc(Cl)cc(C#N)c3)c2)c(C)c1 [Compound I-131, 2-[3-(3-Chloro-5-cyano-phenoxy)-4-methyl-phenyl]-N-[2-methyl-4-(3-methylsulfanyl-propylsulfamoyl)-phenyl]-acetamide] | 159.9 to 162.8 °C |
| COc1cc(CC(=O)Nc2ccc(S(N)(=O)=O)cc2)cc(Oc2cc(Cl)cc(C#N)c2)c1 [Compound I-132, 2-[3-(3-Chloro-5-cyano-phenoxy)-5-methoxy-phenyl]-N-(4-sulfamoyl-phenyl)-acetamide] | 184.1 to 185.5 °C |
| COc1cc(CC(=O)Nc2ccc(S(N)(=O)=O)cc2C)cc(Oc2cc(Cl)cc(C#N)c2)c1 [Compound I-133, 2-[3-(3-Chloro-5-cyano-phenoxy)-5-methoxy-phenyl]-N-(2-methyl-4-sulfamoyl-phenyl)-acetamide] | 169.9 to 171.1 °C |
| COc1cc(CC(=O)Nc2ccc(S(N)(=O)=O)cc2Cl)cc(Oc2cc(Cl)cc(C#N)c2)c1 [Compound I-136, 2-[3-(3-Chloro-5-cyano-phenoxy)-5-methoxy-phenyl]-N-(2-chloro-4-sulfamoyl-phenyl)-acetamide] | 159 to 161.1 °C |
| Cc1cc(S(=O)(=O)CCC#N)ccc1NC(=O)Cc1ccc(C)c(Oc2cc(Cl)cc(C#N)c2)c1 [Compound I-137, 2-[3-(3-Chloro-5-cyano-phenoxy)-4-methyl-phenyl]-N-[4-(2-cyano-ethanesulfonyl)-2-methyl-phenyl]-acetamide] | 186.1 to 188 °C |
| CCCC(=O)N(C)S(=O)(=O)c1ccc(NC(=O)Cc2ccc(Cl)c(Oc3cc(Cl)cc(C#N)c3)c2F)c(Cl)c1 [Compound I-139, N-[4-(Butyryl-methyl-sulfamoyl)-2-chloro-phenyl]-2-[4-chloro-3-(3-chloro-5-cyano-phenoxy)-2-fluoro-phenyl]-acetamide] | 186.9 to 187.6 °C |
| Cc1cc(CC(=O)Nc2ccc(S(N)(=O)=O)cc2)cc(Oc2cc(Cl)cc(C#N)c2)c1 [Compound I-141, 2-[3-(3-Chloro-5-cyano-phenoxy)-5-methyl-phenyl]-N-(4-sulfamoyl-phenyl)-acetamide] | 183.9 to 185.2 °C |
| Cc1cc(CC(=O)Nc2ccc(S(N)(=O)=O)cc2C)cc(Oc2cc(Cl)cc(C#N)c2)c1 [Compound I-142, 2[3-(3-Chloro-5-cyano-phenoxy)-5-methyl-phenyl]-N-(2-methyl-4-sulfamoyl-phenyl)-acetamide] | 184.8 to 186 °C |
| Cc1cc(CC(=O)Nc2ccc(S(N)(=O)=O)cc2Cl)cc(Oc2cc(Cl)cc(C#N)c2)c1 [Compound I-143, 2-[3-(3-Chloro-5-cyano-phenoxy)-5-methyl-phenyl]-N-(2-chloro-4-sulfamoyl-phenyl)-acetamide] | 194.1 to 195.9 °C |
| N#Cc1cccc(Oc2cc(CC(=O)Nc3ccc(S(N)(=O)=O)cc3)cc3ccoc23)c1 [Compound I-144, 2-[7-(3-Cyano-phenoxy)-benzofuran-5-yl]-N-(4-sulfamoyl-phenyl)-acetamide] | 196.4 to 198.7 °C |
| Cc1cc(S(N)(=O)=O)ccc1NC(=O)Cc1cc(Oc2cccc(C#N)c2)c2occc2c1 [Compound I-145, 2-[7-(3-Cyano-phenoxy)-benzofuran-5-yl]-N-(2-methyl-4-sulfamoyl-phenyl)-acetamide] | 218.9 to 220 °C |

| SMILES | melting point |
| --- | --- |
| Cc1cc(CC(=O)Nc2ccc(S(N)(=O)=O)cc2)cc(Oc2cc(C#N)ccc2Cl)c1 [Compound I-146, 2-[3-(2-Chloro-5-cyano-phenoxy)-5-methyl-phenyl]-N-(4-sulfamoyl-phenyl)-acetamide] | 235.9 to 236.7 °C |
| Cc1cc(CC(=O)Nc2ccc(S(N)(=O)=O)cc2C)cc(Oc2cc(C#N)ccc2Cl)c1 [Compound I-147, 2-[3-(2-Chloro-5-cyano-phenoxy)-5-methyl-phenyl]-N-(2-methyl-4-sulfamoyl-phenyl)-acetamide] | 200.3 to 201.1 °C |
| Cc1cc(CC(=O)Nc2ccc(S(N)(=O)=O)cc2Cl)cc(Oc2cc(C#N)ccc2Cl)c1 [Compound I-148, 2-[3-(2-Chloro-5-cyano-phenoxy)-5-methyl-phenyl]-N-(2-chloro-4-sulfamoyl-phenyl)-acetamide] | 212.9 to 214.4 °C |
| NS(=O)(=O)c1ccc(NC(=O)Cc2cc(Oc3cc(Cl)cc(Cl)c3)c3occc3c2)c(Cl)c1 [Compound I-149, N-(2-Chloro-4-sulfamoyl-phenyl)-2-[7-(3,5-dichloro-phenoxy)-benzofuran-5-yl]-acetamide] | 215.1 to 216.6 °C |
| Cc1cc(OC[C@@H](O)CO)ccc1NC(=O)Cc1ccc(C)c(Oc2cc(Cl)cc(C#N)c2)c1 [Compound I-150, 2-[3-(3-Chloro-5-cyano-phenoxy)-4-methyl-phenyl]-N-[4-((S)-2,3-dihydroxy-propoxy)-2-methyl-phenyl]-acetamide] | 137.5 to 138.4 °C |
| Cc1cc(OCC[C@@H](O)CO)ccc1NC(=O)Cc1ccc(C)c(Oc2cc(Cl)cc(C#N)c2)c1 [Compound I-151, 2-[3-(3-Chloro-5-cyano-phenoxy)-4-methyl-phenyl]-N-[4-((R)-3,4-dihydroxy-butoxy)-2-methyl-phenyl]-acetamide] | 104.9 to 106.4 °C |
| Cc1cc(S(=O)(=O)CC(=O)O)ccc1NC(=O)Cc1ccc(C)c(Oc2cc(Cl)cc(C#N)c2)c1 [Compound I-152, (4-{2-[3-(3-Chloro-5-cyano-phenoxy)-4-methyl-phenyl]-acetylamino}-3-methyl-benzenesulfonyl)-acetic acid] | 180.5 to 181.4 °C |
| Cc1cc(S(=O)(=O)CCN)ccc1NC(=O)Cc1ccc(C)c(Oc2cc(Cl)cc(C#N)c2)c1 [Compound I-154, N-[4-(2-Amino-ethanesulfonyl)-2-methyl-phenyl]-2-[3-(3-chloro-5-cyano-phenoxy)-4-methyl-phenyl]-acetamide] | 92.4 to 95.5 °C |
| Cc1cc(S(=O)(=O)CCCO)ccc1NC(=O)Cc1ccc(C)c(Oc2cc(Cl)cc(C#N)c2)c1 [Compound I-157, 2-[3-(3-Chloro-5-cyano-phenoxy)-4-methyl-phenyl]-N-[4-(3-hydroxy-propane-1-sulfonyl)-2-methyl-phenyl]-acetamide] | 78.9 to 79.5 °C |
| Cc1cc(N2CCCCS2(=O)=O)ccc1NC(=O)Cc1ccc(C)c(Oc2cc(Cl)cc(C#N)c2)c1 [Compound I-158, 2-[3-(3-Chloro-5-cyano-phenoxy)-4-methyl-phenyl]-N-[4-(1,1-dioxo-1λ^6-[1,2]thiazinan-2-yl)-2-methyl-phenyl]-acetamide] | 84.3 to 85.6 °C |
| Cc1cc(C(=O)CN2CCN(C)CC2)ccc1NC(=O)Cc1ccc(C)c(Oc2cc(Cl)cc(C#N)c2)c1 [Compound I-159, 2-[3-(3-Chloro-5-cyano-phenoxy)-4-methyl-phenyl]-N-{2-methyl-4-[2-(4-methyl-piperazin-1-yl)-acetyl]-phenyl}-acetamide] | 62.3 to 64.1 °C |
| Cc1cc(N2CC[S+]([O-])CC2)ccc1NC(=O)Cc1ccc(C)c(Oc2cc(Cl)cc(C#N)c2)c1 [Compound I-160, 2-[3-(3-Chloro-5-cyano-phenoxy)-4-methyl-phenyl]-N-[2-methyl-4-(1-oxo-1λ^4-thiomorpholin-4-yl)-phenyl]-acetamide] | 181.3 to 182.1 °C |
| Cc1cc(N2CCS(=O)(=O)CC2)ccc1NC(=O)Cc1ccc(C)c(Oc2cc(Cl)cc(C#N)c2)c1 [Compound I-161, 2-[3-(3-Chloro-5-cyano-phenoxy)-4-methyl-phenyl]-N-[4-(1,1-dioxo-1λ^6-thiomorpholin-4-yl)-2-methyl-phenyl]-acetamide] | 64.8 to 65.4 °C |
| CCC(=O)N(C)S(=O)(=O)c1ccc(NC(=O)Cc2ccc(Cl)c(Oc3cc(Cl)cc(C#N)c3)c2F)c(Cl)c1 [Compound I-162, 2-[4-Chloro-3-(3-chloro-5-cyano-phenoxy)-2-fluoro-phenyl]-N-[2-chloro-4-(methyl-propionyl-sulfamoyl)-phenyl]-acetamide] | 198.2 to 200.6 °C |
| CNS(=O)(=O)c1ccc(NC(=O)Cc2ccc(Cl)c(Oc3cc(Cl)cc(C#N)c3)c2F)c(Cl)c1 [Compound I-168, 2-[4-Chloro-3-(3-chloro-5-cyano-phenoxy)-2-fluoro-phenyl]-N-(2-chloro-4-methylsulfamoyl-phenyl)-acetamide] | 199.1 to 200 °C |
| Cc1cc(N2CCCS2(=O)=O)ccc1NC(=O)Cc1ccc(C)c(Oc2cc(Cl)cc(C#N)c2)c1 [Compound I-170, 2-[3-(3-Chloro-5-cyano-phenoxy)-4-methyl-phenyl]-N-[4-(1,1-dioxo-1λ^6-isothiazolidin-2-yl)-2-methyl-phenyl]-acetamide] | 182.5 to 184.6 °C |
